Data taken from ChEMBL document CHEMBL1144156 (Bioorg Med Chem Lett, 2008).

How the values were obtained:
Progesterone receptor [1] = molecular target: T1, Progesterone receptor (Homo sapiens, UniProt P06401); test: Displacement of [3H]progesterone from progesterone receptor in human T47D cells; assay type: cell-based
T1 sequence (P06401 whole entry): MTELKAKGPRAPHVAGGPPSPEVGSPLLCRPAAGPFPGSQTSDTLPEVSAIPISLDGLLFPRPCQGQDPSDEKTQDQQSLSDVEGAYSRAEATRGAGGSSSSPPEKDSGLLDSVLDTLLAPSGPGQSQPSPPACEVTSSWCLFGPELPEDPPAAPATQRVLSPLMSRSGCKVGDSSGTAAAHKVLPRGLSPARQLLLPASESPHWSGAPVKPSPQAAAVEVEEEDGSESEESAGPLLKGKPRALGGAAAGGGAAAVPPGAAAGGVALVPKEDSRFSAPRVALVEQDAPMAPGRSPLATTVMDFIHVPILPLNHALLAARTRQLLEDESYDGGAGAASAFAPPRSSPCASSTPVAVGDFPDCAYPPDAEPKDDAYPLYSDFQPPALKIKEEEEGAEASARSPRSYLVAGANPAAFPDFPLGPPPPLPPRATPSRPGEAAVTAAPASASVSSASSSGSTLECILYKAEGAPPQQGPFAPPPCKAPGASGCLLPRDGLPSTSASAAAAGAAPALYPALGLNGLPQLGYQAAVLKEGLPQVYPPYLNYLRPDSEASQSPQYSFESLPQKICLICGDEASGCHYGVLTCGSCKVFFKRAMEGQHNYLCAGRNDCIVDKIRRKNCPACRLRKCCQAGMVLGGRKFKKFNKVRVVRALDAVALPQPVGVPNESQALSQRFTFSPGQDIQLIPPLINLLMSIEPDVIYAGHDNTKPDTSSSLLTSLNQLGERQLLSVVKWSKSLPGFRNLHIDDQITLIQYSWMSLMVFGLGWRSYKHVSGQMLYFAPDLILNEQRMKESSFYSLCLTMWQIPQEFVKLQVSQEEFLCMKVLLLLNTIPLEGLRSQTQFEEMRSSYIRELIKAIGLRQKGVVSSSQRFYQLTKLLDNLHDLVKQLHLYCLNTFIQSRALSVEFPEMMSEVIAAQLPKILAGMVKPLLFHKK

Progesterone receptor [2] = molecular target: T1, Progesterone receptor; test: Activity at progesterone receptor assessed as alkaline phosphatase activity in human T47D cells; assay type: cell-based
Estrogen receptor = molecular target: T2, Estrogen receptor (Homo sapiens, UniProt P03372); test: Antagonist activity at estrogen receptor by Gal4-DNA binding domain-hormone receptor LBD one-hybrid assay
T2 sequence (P03372 whole entry): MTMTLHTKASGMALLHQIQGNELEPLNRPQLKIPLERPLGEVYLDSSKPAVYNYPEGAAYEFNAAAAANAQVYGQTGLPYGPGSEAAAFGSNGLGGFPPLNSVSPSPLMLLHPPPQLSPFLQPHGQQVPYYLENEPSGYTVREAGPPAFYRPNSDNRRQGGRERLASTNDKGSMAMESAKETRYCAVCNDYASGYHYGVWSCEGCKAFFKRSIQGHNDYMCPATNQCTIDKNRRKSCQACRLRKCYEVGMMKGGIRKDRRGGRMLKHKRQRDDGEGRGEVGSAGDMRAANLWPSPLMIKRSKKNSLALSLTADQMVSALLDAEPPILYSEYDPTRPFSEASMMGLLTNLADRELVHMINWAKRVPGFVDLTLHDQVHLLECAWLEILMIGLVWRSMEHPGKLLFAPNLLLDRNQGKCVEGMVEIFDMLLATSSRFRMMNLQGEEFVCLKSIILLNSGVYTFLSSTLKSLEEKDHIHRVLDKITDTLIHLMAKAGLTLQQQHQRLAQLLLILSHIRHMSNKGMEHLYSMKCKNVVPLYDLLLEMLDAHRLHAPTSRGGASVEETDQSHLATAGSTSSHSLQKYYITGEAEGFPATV

[3] = molecular target: T3, Mineralocorticoid receptor (Homo sapiens, UniProt P08235); test: Antagonist activity at mineralocorticoid receptor by Gal4-DNA binding domain-hormone receptor LBD one-hybrid assay
T3 sequence (P08235 whole entry): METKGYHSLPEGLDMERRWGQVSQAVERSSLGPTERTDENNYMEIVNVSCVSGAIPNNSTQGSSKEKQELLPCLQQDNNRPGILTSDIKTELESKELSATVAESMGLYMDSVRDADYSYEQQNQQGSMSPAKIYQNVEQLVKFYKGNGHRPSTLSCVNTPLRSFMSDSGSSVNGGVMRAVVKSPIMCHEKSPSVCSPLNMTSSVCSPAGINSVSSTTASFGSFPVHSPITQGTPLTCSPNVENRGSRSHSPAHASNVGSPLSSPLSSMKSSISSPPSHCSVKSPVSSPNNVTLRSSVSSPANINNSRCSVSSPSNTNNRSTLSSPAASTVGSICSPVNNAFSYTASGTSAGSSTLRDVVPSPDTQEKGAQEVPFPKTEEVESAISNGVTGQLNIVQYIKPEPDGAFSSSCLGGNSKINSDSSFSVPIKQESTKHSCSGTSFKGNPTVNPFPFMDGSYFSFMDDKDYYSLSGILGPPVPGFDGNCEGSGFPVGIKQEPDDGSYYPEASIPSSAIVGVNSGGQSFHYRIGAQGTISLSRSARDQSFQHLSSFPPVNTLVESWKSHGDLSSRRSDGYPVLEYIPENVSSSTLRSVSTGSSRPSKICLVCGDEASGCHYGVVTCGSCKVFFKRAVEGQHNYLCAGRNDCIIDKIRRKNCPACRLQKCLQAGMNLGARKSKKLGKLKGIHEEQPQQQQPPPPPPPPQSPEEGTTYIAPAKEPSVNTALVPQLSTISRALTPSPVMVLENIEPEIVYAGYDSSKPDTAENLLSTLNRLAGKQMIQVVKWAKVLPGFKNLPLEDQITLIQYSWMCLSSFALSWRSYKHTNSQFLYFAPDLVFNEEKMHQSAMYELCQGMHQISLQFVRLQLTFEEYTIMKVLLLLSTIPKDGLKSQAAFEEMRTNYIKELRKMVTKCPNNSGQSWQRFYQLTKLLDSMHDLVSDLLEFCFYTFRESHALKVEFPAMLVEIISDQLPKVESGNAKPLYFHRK

Androgen receptor = molecular target: T4, Androgen receptor (Homo sapiens, UniProt P10275); test: Antagonist activity at androgen receptor by Gal4-DNA binding domain-hormone receptor LBD one-hybrid assay
T4 sequence (P10275 whole entry): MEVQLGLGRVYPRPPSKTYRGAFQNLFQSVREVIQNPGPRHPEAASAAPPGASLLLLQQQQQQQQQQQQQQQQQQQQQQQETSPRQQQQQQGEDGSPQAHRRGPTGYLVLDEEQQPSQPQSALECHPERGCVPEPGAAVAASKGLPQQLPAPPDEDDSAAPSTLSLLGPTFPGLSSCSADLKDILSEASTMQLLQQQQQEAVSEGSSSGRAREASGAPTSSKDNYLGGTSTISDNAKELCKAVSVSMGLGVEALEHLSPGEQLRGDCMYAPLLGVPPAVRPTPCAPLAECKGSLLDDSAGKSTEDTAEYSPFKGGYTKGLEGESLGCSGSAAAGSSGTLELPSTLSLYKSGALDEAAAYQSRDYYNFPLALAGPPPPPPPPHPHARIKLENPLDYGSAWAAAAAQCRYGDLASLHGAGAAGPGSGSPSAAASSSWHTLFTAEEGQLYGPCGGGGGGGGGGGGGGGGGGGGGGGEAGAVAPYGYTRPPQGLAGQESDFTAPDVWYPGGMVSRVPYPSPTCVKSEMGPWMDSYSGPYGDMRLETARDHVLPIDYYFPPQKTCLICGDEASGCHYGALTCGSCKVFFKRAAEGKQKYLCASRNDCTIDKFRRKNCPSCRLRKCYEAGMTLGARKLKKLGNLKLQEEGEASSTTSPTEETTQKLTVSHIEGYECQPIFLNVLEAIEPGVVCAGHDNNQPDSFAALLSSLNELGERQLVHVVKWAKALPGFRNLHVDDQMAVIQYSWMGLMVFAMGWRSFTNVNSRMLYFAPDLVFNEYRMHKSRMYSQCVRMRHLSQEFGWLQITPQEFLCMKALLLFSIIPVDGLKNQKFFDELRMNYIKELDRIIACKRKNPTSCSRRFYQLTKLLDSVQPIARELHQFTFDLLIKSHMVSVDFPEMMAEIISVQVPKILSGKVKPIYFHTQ

Glucocorticoid receptor = molecular target: T5, Glucocorticoid receptor (Homo sapiens, UniProt P04150); test: Antagonist activity at glucocorticoid receptor by Gal4-DNA binding domain-hormone receptor LBD one-hybrid assay
T5 sequence (P04150 whole entry): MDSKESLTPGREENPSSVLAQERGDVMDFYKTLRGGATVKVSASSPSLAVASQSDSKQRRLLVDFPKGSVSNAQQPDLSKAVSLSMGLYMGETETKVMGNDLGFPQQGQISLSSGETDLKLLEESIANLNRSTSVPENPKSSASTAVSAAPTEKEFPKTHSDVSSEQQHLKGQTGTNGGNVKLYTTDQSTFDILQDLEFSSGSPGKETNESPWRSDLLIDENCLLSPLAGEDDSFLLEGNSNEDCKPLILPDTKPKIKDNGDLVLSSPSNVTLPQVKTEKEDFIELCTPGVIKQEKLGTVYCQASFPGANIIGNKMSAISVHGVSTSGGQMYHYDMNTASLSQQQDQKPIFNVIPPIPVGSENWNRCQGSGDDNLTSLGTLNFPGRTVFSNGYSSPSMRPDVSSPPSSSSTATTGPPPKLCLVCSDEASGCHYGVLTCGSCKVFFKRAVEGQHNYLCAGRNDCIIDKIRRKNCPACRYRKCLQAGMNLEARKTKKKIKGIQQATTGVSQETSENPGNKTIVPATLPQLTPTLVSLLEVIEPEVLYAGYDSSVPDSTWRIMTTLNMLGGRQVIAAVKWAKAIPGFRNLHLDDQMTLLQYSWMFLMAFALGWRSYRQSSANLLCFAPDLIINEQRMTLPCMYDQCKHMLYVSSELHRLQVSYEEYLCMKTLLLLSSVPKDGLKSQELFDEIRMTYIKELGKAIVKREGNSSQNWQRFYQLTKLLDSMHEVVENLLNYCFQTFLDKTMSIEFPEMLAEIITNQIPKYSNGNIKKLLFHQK

Progesterone receptor [4] = molecular target: T1, Progesterone receptor; test: Antagonist activity at progesterone receptor assessed as progesterone-induced alkaline phosphatase activity in human T47D cells; assay type: functional, cell-based

SMILES	IC50 (Progesterone receptor [1]) [nM]	EC50 (Progesterone receptor [2]) [nM]	IC50 (Progesterone receptor [4]) [nM]	also measured
CC1(c2cccs2)OCC(=O)Nc2ccc(-c3ccc(C#N)[nH]3)cc21 (stereo not given)	3.8	0.7	–	–
Cn1c(C#N)ccc1-c1ccc2c(c1)C(C)(c1ccsc1)OCC(=O)N2 (stereo not given)	3.4	0.8	–	IC50 (Estrogen receptor): > 10000 nM; IC50 [3]: 440 nM; IC50 (Androgen receptor): 325 nM; IC50 (Glucocorticoid receptor): 127 nM
CC1OCC(=O)Nc2ccc(-c3ccc(C#N)n3C)cc21 (stereo not given)	–	138	–	–
Cn1c(C#N)ccc1-c1ccc2c(c1)C(c1cccs1)(c1cccs1)OCC(=O)N2	60	–	–	IC50 (Estrogen receptor): > 10000 nM; IC50 [3]: 2300 nM; IC50 (Androgen receptor): 775 nM; IC50 (Glucocorticoid receptor): > 3000 nM
C[C@@]1(c2ccsc2)OCC(=O)Nc2ccc(-c3ccc(C#N)[nH]3)cc21	–	0.5	–	–
Cn1c(C#N)ccc1-c1ccc2c(c1)C(c1ccccc1)(c1ccccc1)OCC(=O)N2	36	–	14.3	–
CCCC1(c2cccs2)OCC(=O)Nc2ccc(-c3ccc(C#N)n3C)cc21 (stereo not given)	–	–	56.6	–
Cn1c(C#N)ccc1-c1ccc2c(c1)C(C)(C)OCC(=O)N2	–	3.3	–	–
CCC1(c2cccs2)OCC(=O)N(C)c2ccc(-c3ccc(C#N)n3C)cc21 (stereo not given)	–	–	120	–
N#Cc1ccc(-c2ccc3c(c2)C2(CCCCC2)OCC(=O)N3)[nH]1	–	30.5	–	–
Cn1c(C#N)ccc1-c1ccc2c(c1)C(c1ccco1)(c1ccco1)OCC(=O)N2	28.4	–	6.6	IC50 (Estrogen receptor): > 10000 nM; IC50 [3]: 2800 nM; IC50 (Androgen receptor): 740 nM; IC50 (Glucocorticoid receptor): > 3000 nM
CC1(c2ccsc2)OCC(=O)Nc2ccc(-c3ccc(C#N)[nH]3)cc21 (stereo not given)	–	1.1	–	–
Cn1c(C#N)ccc1-c1ccc2c(c1)C(c1cccc(Cl)c1)(c1cccc(Cl)c1)OCC(=O)N2	–	–	175	–
Cn1c(C#N)ccc1-c1ccc2c(c1)C(C)(c1ccco1)OCC(=O)N2 (stereo not given)	–	0.4	–	IC50 (Estrogen receptor): > 10000 nM; IC50 [3]: 155 nM; IC50 (Androgen receptor): 215 nM; IC50 (Glucocorticoid receptor): 120 nM

Second part, led by results:

IC50 (Progesterone receptor [1]) [nM]	EC50 (Progesterone receptor [2]) [nM]	IC50 (Progesterone receptor [4]) [nM]	SMILES	also measured
2.4	0.8	–	Cn1c(C#N)ccc1-c1ccc2c(c1)C(C)(c1cccs1)OCC(=O)N2 (stereo not given)	–
–	110	–	C[C@]1(c2ccsc2)OCC(=O)Nc2ccc(-c3ccc(C#N)[nH]3)cc21	–
75	–	–	CCC1(c2cccs2)OCC(=O)Nc2ccc(-c3ccc(C#N)n3C)cc21 (stereo not given)	–
–	–	500	CN1C(=O)COC(c2ccccc2)(c2ccccc2)c2cc(-c3ccc(C#N)n3C)ccc21	–
–	37.5	–	CN1C(=O)COC(C)(c2cccs2)c2cc(-c3ccc(C#N)n3C)ccc21 (stereo not given)	–
10.7	3.3	–	CC1(C)OCC(=O)Nc2ccc(-c3ccc(C#N)[nH]3)cc21	–
–	–	197	Cn1c(C#N)ccc1-c1ccc2c(c1)C(c1ccc(Cl)s1)(c1ccc(Cl)s1)OCC(=O)N2	–
–	–	36.5	CC(C)C1(c2cccs2)OCC(=O)Nc2ccc(-c3ccc(C#N)n3C)cc21 (stereo not given)	–
–	246	–	CC1OCC(=O)Nc2ccc(-c3ccc(C#N)[nH]3)cc21 (stereo not given)	–
